Measurements as given in patent publication US6995143B2, “Macrolides with antibacterial activity” (Basilea Pharmaceutica AG, priority 2002, dated 2006).
≈ marks a conversion by molar mass, not a printed value.

Experiments:
Assay type in all cases: cell-based
[1] = system: Haemophilus influenzae 12214; assay: MIC, standard agar dilution method using HTM medium
Procedure, shortened: (§1)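 MICs were read following the NCCLS approved standard (M7-A5) for dilution susceptibility testing of aerobically growing bacteria. Compounds were tested against Haemophilus influenzae.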

[2] = system: Haemophilus influenzae QK50; assay: as above
Procedure, shortened: as §1

[3] = system: Haemophilus influenzae B1501; assay: as above
Procedure, shortened: as §1

[4] = system: Haemophilus influenzae QK12/87; assay: as above
Procedure, shortened: as §1

[5] = system: Staphylococcus aureus 745; assay: MIC, standard microdilution technique
Procedure, shortened: (§2)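 Antibacterial activity was determined by broth microdilution following the NCCLS approved standard M7-A5 (5th edition, 2000) for dilution susceptibility testing of aerobically growing bacteria.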

[6] = system: Streptococcus pneumoniae SL199T; assay: MIC, standard microdilution technique
Procedure, shortened: as §2

[7] = system: Streptococcus pneumoniae 12288; assay: MIC, standard microdilution technique
Procedure, shortened: as §2

[8] = system: Escherichia coli ATCC 25922; assay: MIC, standard microdilution technique
Procedure, shortened: as §2

[9] = system: Staphylococcus aureus ATCC 29213; assay: MIC, standard microdilution technique
Procedure, shortened: as §2

[10] = system: Staphylococcus aureus 1086; assay: MIC, standard microdilution technique
Procedure, shortened: as §2

[11] = system: Streptococcus pneumoniae l/l; assay: MIC, standard microdilution technique
Procedure, shortened: as §2

[12] = system: Streptococcus pneumoniae ¼; assay: MIC, standard microdilution technique
Procedure, shortened: as §2

Compound	minimum inhibitory concentration (MIC), Strain K [1]	minimum inhibitory concentration (MIC), Strain L [2]	minimum inhibitory concentration (MIC), Strain M [3]	minimum inhibitory concentration (MIC), Strain I [4]	minimum inhibitory concentration (MIC), Strain C [5]	minimum inhibitory concentration (MIC), Strain G [6]	minimum inhibitory concentration (MIC), Strain H [7]	minimum inhibitory concentration (MIC), Strain D [8]	minimum inhibitory concentration (MIC), Strain A [9]	minimum inhibitory concentration (MIC), Strain B [10]	minimum inhibitory concentration (MIC), Strain E [11]	minimum inhibitory concentration (MIC), Strain F [12]
CC[C@H]1OC(=O)[C@H](C)C(=O)[C@H](C)[C@@H](O[C@@H]2O[C@H](C)C[C@H](N(C)C)[C@H]2O)[C@](C)(OC)C[C@@H](C)C(=O)[C@H](C)[C@H]2[C@@H](SCC(=O)c3csc4ccccc34)C(=O)O[C@@]21C [Example 54]	16 µg/mL (≈ 19.6 µM)	32 µg/mL (≈ 39.1 µM)	8 µg/mL (≈ 9.78 µM)	16 µg/mL (≈ 19.6 µM)	>32 µg/mL	>32 µg/mL	>32 µg/mL	>32 µg/mL	1 µg/mL (≈ 1.22 µM)	0.5 µg/mL (≈ 0.611 µM)	<=0.06 μg/ml	32 µg/mL (≈ 39.1 µM)
CC[C@H]1OC(=O)[C@H](C)C(=O)[C@H](C)[C@@H](O[C@@H]2O[C@H](C)C[C@H](N(C)C)[C@H]2O)[C@](C)(OC)C[C@@H](C)C(=O)[C@H](C)[C@H]2[C@@H](SCC(=O)Nc3ccc(C)c(C)c3)C(=O)O[C@@]21C [Example 55]	8 µg/mL (≈ 9.94 µM)	16 µg/mL (≈ 19.9 µM)	8 µg/mL (≈ 9.94 µM)	8 µg/mL (≈ 9.94 µM)	>32 µg/mL	0.25 µg/mL (≈ 0.311 µM)	2 µg/mL (≈ 2.48 µM)	>32 µg/mL	0.25 µg/mL (≈ 0.311 µM)	0.125 µg/mL (≈ 0.155 µM)	<=0.06 μg/ml	<=0.06 μg/ml
CC[C@H]1OC(=O)[C@@](C)(F)C(=O)[C@H](C)[C@@H](O[C@@H]2O[C@H](C)C[C@H](N(C)C)[C@H]2O)[C@](C)(OC)C[C@@H](C)C(=O)[C@H](C)[C@H]2[C@@H](S(=O)(=O)CCCn3cnc4c(N)ncnc43)C(=O)O[C@@]21C [Example 58]	4 µg/mL (≈ 4.6 µM)	4 µg/mL (≈ 4.6 µM)	4 µg/mL (≈ 4.6 µM)	4 µg/mL (≈ 4.6 µM)	>32 µg/mL	0.5 µg/mL (≈ 0.575 µM)	8 µg/mL (≈ 9.21 µM)	>32 µg/mL	0.5 µg/mL (≈ 0.575 µM)	0.5 µg/mL (≈ 0.575 µM)	<=0.06 μg/ml	<=0.06 μg/ml
(3R or S, 3aR, 4R or S, 6R, 8R, 9R, 10R, 12S, 15R, 15aS) -3-[[3-[6-Amino-9H-purine-9-yl]propyl]thio]-15-ethyl-12-fluorooctahydro-8-methoxy-4,6,8,10,12,15a-hexamethyl-3-9-[[3,4,6-trideoxy-3-(dimethylamino)-β-D-xylo-hexopyranosyl]oxy]-2H-furo [2,3-c] oxacyclotetradecin-2,5,11,13 (3H,6H,12H)-tetrone [Example 13]	2 µg/mL	2 µg/mL	2 µg/mL	2 µg/mL	>32 µg/mL	<=0.06 μg/ml	0.25 µg/mL	32 µg/mL	<=0.06 μg/ml	<=0.06 μg/ml	<=0.06 μg/ml	<=0.06 μg/ml
(3R or S, 3aS, 4R or S, 6R, 8R, 9R, 10R, 12R, 15R, 15aS) -15-Ethylhexadecahydro-4,6,8,10,12,15a-hexamethyl-2,5,11,13-tetraoxo-8-[[(2E)-3-(3-quinolyl)-2-propen-1-yl]oxy]-9-[[3,4,6-trideoxy-3-(dimethylamino)-β-D-xylo-hexopyranosyl]oxy]-2H-furo [2,3-c] oxacyclotetradecin-3-carbonitrile [Example 15]	4 µg/mL	2 µg/mL	2 µg/mL	4 µg/mL	32 µg/mL	2 µg/mL	16 µg/mL	>32 µg/mL	<=0.06 μg/ml	<=0.06 μg/ml	<=0.06 μg/ml	0.25 µg/mL
